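Briefly, cells in 96-well plates were exposed to five compound concentrations for 48 h, and endpoints were estimated by linear interpolation. GI50 is the concentration that inhibits growth by half.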 The source made the active and inactive calls. Cut-off read from the data, not from the text of the source: active = GI50 up to about 1.1 µM and inactive = higher.

Assay in all cases: NCI-60 cell line screen, 48 h
Assay [1] has as its system SW-620.
For assay [2], the system named is SK-MEL-2.
Assay [3] relates to IGROV-1.
Assay [4] relates to NCI-H522.
The subject of assay [5] is NCI/ADR-RES.
Assay [6] concerns CCRF-CEM.
Assay [7] relates to SN12C.
In assay [8] the test system is A498.
Assay [9] deals with UO-31.
Assay [10] relates to MOLT-4.
For assay [11], the system named is SR.
Assay [12] concerns SF-539.
In assay [13] the test system is KM12.
Assay [14] concerns HCC 2998.
For assay [15], the system named is MCF7.
Assay [16] concerns NCI-H460.
In assay [17] the test system is TK-10.
Assay [18] relates to LOX IMVI.
For assay [19], the system named is M14.
The test system of assay [20] is OVCAR-4.

With `COc1cc(C2c3cc4c(cc3OC(N3CCOCC3)C2C)OCO4)cc(OC)c1OC(C)=O` (centres undefined), the GI50 in assay [1] is 6.12 µM (inactive); in [2], 12.9 µM (inactive); in assay [3], 14.2 µM (inactive); in [4] it was 4.3 µM (inactive); in assay [5], 4.69 µM (inactive); in assay [6], 11.7 µM (inactive). Besides, the GI50 in assay [7] was 17.7 µM (inactive); in assay [8], 27.8 µM (inactive); in assay [9], 28.4 µM (inactive); in assay [10], 13 µM (inactive); in assay [11], 6.25 µM (inactive); in assay [12], 13.3 µM (inactive). Moreover, the GI50 in [13] was 5.35 µM (inactive); in assay [14], 11.9 µM (inactive); in assay [15], 8.59 µM (inactive); in assay [16], 7.69 µM (inactive); in [17], 30.7 µM (inactive); in assay [18], 23.6 µM (inactive). Also, the GI50 in assay [19] was 9.06 µM (inactive); in assay [20], 57.3 µM (inactive).

`Nc1nc(N)c2ncn(-c3ccc(Br)cc3)c2n1`: the GI50 in assay [1] was 45.9 µM (inactive); in assay [2], 14.4 µM (inactive); in assay [3], 5.38 µM (inactive); in assay [4], 9.77 µM (inactive); in [5], 10.7 µM (inactive); in assay [6] it was 8.43 µM (inactive). Moreover, the GI50 is 16.9 µM (inactive) in assay [7]; 15.6 µM (inactive) in assay [8]; 13.5 µM (inactive) in assay [9]; 11.6 µM (inactive) in [10]; 0.119 µM (active) in [11]; 14.7 µM (inactive) in [12]. For the same compound, the GI50 in assay [13] was 14.4 µM (inactive); in assay [14], 37.7 µM (inactive); in assay [15], 20.3 µM (inactive); in assay [16], 34.9 µM (inactive); in assay [17], 35.1 µM (inactive); in assay [18] it was 27 µM (inactive). In addition, the GI50 in [19] is 14.6 µM (inactive); in assay [20] it was > 38.3 µM (inactive).

For `Cc1nc2ccc(Cl)cc2c2c1CCN2c1ccc(F)cc1`, the GI50 in assay [1] was 27.1 µM (inactive); in assay [2] it was 23 µM (inactive); in assay [3], 9.42 µM (inactive); in assay [4] it was 44.2 µM (inactive); in assay [5] it was 13 µM (inactive); in assay [6] it was 11.6 µM (inactive). The GI50 in assay [7] is 26.5 µM (inactive); in assay [8], 0.891 µM (active); in assay [9], 5.4 µM (inactive); in assay [10] it was 4.72 µM (inactive); in assay [11] it was 13.1 µM (inactive); in [12], 22.3 µM (inactive). In addition, the GI50 in assay [13] is 25.8 µM (inactive); in assay [14], 23.6 µM (inactive); in [15] it was 12.2 µM (inactive); in assay [16], 7.03 µM (inactive); in [17], 18.1 µM (inactive); in [18], 8.73 µM (inactive). Besides, the results for the GI50 in [19] and in [20] were 16.5 µM (inactive) and 5.9 µM (inactive), respectively.

`O=C1C=CC(=O)c2c1ccc1c3ccccc3n(-c3cccc([N+](=O)[O-])c3)c21`: the GI50 in [1] is 0.804 µM (active); in assay [2], > 10 µM (inactive); in [3], 5.81 µM (inactive); in [4], 1.91 µM (inactive); in [5], > 5.58 µM (inactive); in assay [6], 0.357 µM (active). For the same compound, the GI50 in assay [7] was 3.96 µM (inactive); in assay [8], 5.85 µM (inactive); in assay [9] it was 2.4 µM (inactive); in [10] it was 0.355 µM (active); in assay [11], 0.412 µM (active); in assay [12], > 5.05 µM (inactive). Also, the GI50 in assay [13] is > 7.98 µM (inactive); in [14] it was > 10 µM (inactive); in assay [15], 2.29 µM (inactive); in assay [16] it was > 10 µM (inactive); in assay [17], 2.24 µM (inactive); in assay [18], > 10 µM (inactive). Besides, the GI50 was 1.73 µM (inactive) in [19] and 2.81 µM (inactive) in assay [20].

As for `OCCCNCC(O)c1ccc(OCc2ccccc2)c(OCc2ccccc2)c1` (centres undefined), the GI50 in assay [1] was 8.34 µM (inactive); in [2], 8.02 µM (inactive); in assay [3], 10.2 µM (inactive); in [4], 14.1 µM (inactive); in [5] it was 18.7 µM (inactive); in assay [6] it was 8.15 µM (inactive). Further, the GI50 is 15.3 µM (inactive) in assay [7]; 11.9 µM (inactive) in assay [8]; 15 µM (inactive) in assay [9]; 8.3 µM (inactive) in assay [10]; 10.9 µM (inactive) in assay [11]; 10.9 µM (inactive) in assay [12]. In addition, the GI50 in assay [13] is 12.5 µM (inactive); in [14] it was 5.3 µM (inactive); in assay [15], 8.04 µM (inactive); in [16] it was 7.52 µM (inactive); in assay [17], 7.91 µM (inactive); in assay [18], 6.35 µM (inactive). Moreover, the GI50 in assay [19] is 17.1 µM (inactive); in assay [20], 7.41 µM (inactive).

For the compound `CC1(C)C2CC3C(C)(C2)C31c1cc(Cl)ccc1N` (centres undefined), the GI50 in assay [1] was 15 µM (inactive); in assay [2], 15 µM (inactive); in assay [3], 14.5 µM (inactive); in assay [4] it was 6.71 µM (inactive); in assay [5], 14.7 µM (inactive); in [6] it was 16 µM (inactive). Also, the GI50 was 14.4 µM (inactive) in [7]; 17.7 µM (inactive) in assay [8]; 13.9 µM (inactive) in assay [9]; 8.36 µM (inactive) in [10]; 6.79 µM (inactive) in assay [11]; 15.5 µM (inactive) in assay [12]. Moreover, the GI50 in assay [13] is 14.4 µM (inactive); in assay [14] it was 15 µM (inactive); in assay [15], 13.4 µM (inactive); in [16] it was 15.1 µM (inactive); in assay [17], 15.5 µM (inactive); in [18], 13.6 µM (inactive). For the same compound, the GI50 in assay [19] was 12.4 µM (inactive); in assay [20] it was 15.2 µM (inactive).

Consider `CCCNC1=C2C[C@@H](C)C[C@@H](OC)[C@@H](OC(=O)CCCN)[C@H](C)/C=C(\C)[C@@H](OC(N)=O)[C@H](OC)/C=C\C=C(/C)C(=O)NC(=CC1=O)C2=O`, for which the GI50 in assay [1] was 10.6 µM (inactive); in assay [2], 14.9 µM (inactive); in [3], 16.1 µM (inactive); in [4], 5.02 µM (inactive); in assay [5] it was 28.8 µM (inactive); in assay [6], 2.52 µM (inactive). For the same compound, the GI50 in [7] was 22.7 µM (inactive); in assay [8], 21.8 µM (inactive); in assay [9] it was 19.2 µM (inactive); in assay [10], 6.9 µM (inactive); in [11] it was 7.98 µM (inactive); in assay [12] it was 20.3 µM (inactive). Also, the GI50 in [13] was 10.6 µM (inactive); in assay [14] it was 18.8 µM (inactive); in assay [15], 7.69 µM (inactive); in assay [16], 11.2 µM (inactive); in assay [17], 17.9 µM (inactive); in assay [18], 16 µM (inactive). The figures for the GI50 in [19] and in [20] were 15.2 µM (inactive) and 18.7 µM (inactive), respectively.

In the case of `COC(=O)C1CCN(C(=O)OC(C)(C)C)CC1`, the GI50 in assay [1], in [2], in [3], in [4], in assay [5] and in assay [6] was > 100 µM (inactive) in each case. The GI50 in assay [7], in assay [8], in assay [9], in [10], in assay [11] and in assay [12] was > 100 µM (inactive) throughout. In addition, the GI50 in [13], in assay [14], in assay [15], in assay [16], in assay [17] and in assay [18] was > 100 µM (inactive) throughout. The GI50 in [19] and in [20] was > 100 µM (inactive) each time.

As to `CCCCCCCCCCc1c2nc(c(CCCCCCCCCC)c3ccc([nH]3)c(CCCCCCCCCC)c3nc(c(CCCCCCCCCC)c4ccc1[nH]4)C=C3)C=C2`, the GI50 in [1], in assay [2], in assay [3], in assay [4], in [5] and in [6] was > 100 µM (inactive) throughout. Moreover, the GI50 in assay [7], in assay [8], in assay [9], in assay [10], in [11] and in assay [12] was > 100 µM (inactive) each time. The GI50 in assay [13], in assay [14], in assay [15], in assay [16], in assay [17] and in [18] was > 100 µM (inactive) throughout. The GI50 in [19] and in assay [20] was > 100 µM (inactive) each time.

For the compound `COc1cc2c(c(OC)c1OC)-c1ccc(SC)c(=O)cc1[C@@H](OC(=O)c1ccncc1)CC2`, the GI50 in [1] was < 0.01 µM (active); in [2], 0.407 µM (active); in assay [3], < 0.01 µM (active); in assay [4] it was < 0.01 µM (active); in [5], < 0.01 µM (active); in [6] it was < 0.01 µM (active). Further, the GI50 in assay [8] was < 0.0116 µM (active); in assay [9], < 0.01 µM (active); in [10], < 0.01 µM (active); in assay [11] it was < 0.0145 µM (active); in assay [12] it was < 0.01 µM (active); in [13] it was < 0.01 µM (active). Further, the GI50 in [14] is < 0.01 µM (active); in assay [15], < 0.01 µM (active); in [16], < 0.01 µM (active); in assay [17], 4.92 µM (inactive); in [18], < 0.01 µM (active); in [19] it was < 0.01 µM (active). Further, the GI50 in assay [20] is 27 µM (inactive).
